Measurements taken from patent US8293979B2, “Weed controller metabolism proteins, genes, thereof and use of the same” (Sumitomo Chemical Company, Limited, priority 2001, dated 2012).

Columns and labels:
[1] = tested on: Blackgrass; test: Herbicidal activity test, soil surface treatment; type: in vivo, Alopercurus myosuroides; parameters: key: 0: situations in which the condition of sprouting or vegetation at the time of examination of the plant utilized for the test was compared with and showed totally or substantially no difference with that of the untreated application; 10: situations in which the plant completely withered or the sprouting or vegetation was completely suppressed; conditions: 500 g/ha, sprayed onto the surface of the soil after seeding, investigated after 19 days in a greenhouse
Experimental: Soil was packed into a round plastic pot having a diameter of 10 cm and depth of 10 cm. Barnyardgrass, Blackgrass, Ivyleaf morningglory were seeded. Five (5) parts of the test compound, 6 parts of sorpol3005X (Toho Chemical Company) and 89 parts of xylene were well mixed to produce an emulsion. A certain amount thereof was diluted with water containing 0.1% (v/v) of a sticking agent at a proportion of 1000 L for 1 hectare and was spread uniformly with a spray-gun onto the surface of the soil. After cultivating the plants for 19 days in a greenhouse, the herbicidal activity was investigated.
In the above Tables 3 and 4, the strength of the herbicidal activity is shown stepwise as 0, 1, 2, 3, 4, 5, 6, 7, 8, 9, and 10.

[2] = tested on: leaf pieces derived from the tobacco to which the control DNA (T-DNA region of plasmid pBI121S) was introduced; test: Herbicidal damage of tobacco leaf pieces on MS agar medium containing compound (II); type: cell-based, Nicotiana tabacum strain SR1; conditions: MS agar medium containing 0.1 mg/L of compound (II), in the light at room temperature, 7th day of culturing
Experimental: Then, according to the method described in Manual for Gene Manipulation of Plant (by Hirofumi UCHIMIYA, Kodan-sha Scientific, 1992), the gene was introduced into tobacco. Agrobacterium strains bearing the above plasmids were each cultured at 28° C. overnight in LB medium containing 300 mg/L streptomycin, 100 mg/L rifampicin and 25 mg/L kanamycin, and then leaf pieces of tobacco (Nicotiana tabacum strain SR1) cultured sterilely were dipped in the liquid culture medium. The leaf pieces were planted and cultured at room temperature for 2 days in the light in MS agar medium (MS inorganic salts, MS vitamins, 3% sucrose and 0.8% agar; described in Murashige T. and Skoog F., Physiol. Plant. (1962) 15, p 473) containing 0.1 mg/L of naphthalene acetic acid and 1.0 mg/L of benzyl aminopurine. Then, the leaf pieces were washed with sterilized water and cultured for 7 days on MS agar medium containing 0.1 mg/L of naphthalene acetic acid, 1.0 mg/L of benzyl aminopurine and 500 mg/L of cefotaxime. Next, the leaf pieces were transplanted and cultured in MS agar medium containing 0.1 mg/L of naphthalene acetic acid, 1.0 mg/L of benzyl aminopurine, 500 mg/L of cefotaxime and 100 mg/L of kanamycin. The culture was conducted continuously for 4 months while transplanting the leaf pieces to fresh medium of the same composition at intervals of 4 weeks. […]

[3] = tested on: leaf pieces derived from the tobacco to which the present invention DNA (A2) was introduced; test: as above; type: cell-based; conditions: MS agar medium containing 0.1 mg/L of compound (II), in the light at room temperature, 7th day of culturing
Excerpt: Leaf pieces of sterily cultured tobacco were infected with each of the agrobacterium strain bearing pBI-NdG6-rSt-923 and the agrobacterium strain bearing pBI-NdG6-rSt12-923. Tobaccos in which the present invention DNA (A2) has been introduced were obtained under the procedures similar to the methods described in Example 19.
Three (3) leaves were taken from the obtained transgenic tobacco. Each leaf was divided into 4 pieces in which each piece was 5 to 7 mm wide. Each of the leaf pieces were planted onto MS agar medium containing 0.1 mg/L of compound (II) and cultured in the light at room temperature. On the 7th day of culturing, the herbicidal damage of each of the leaf pieces was observed.

[4] = tested on: present invention protein (A13); test: Detection of the ability to convert compound (II) to compound (III), E. coli pKSN474F extract; type: in vitro ADME, Streptomyces thermocoerulesces IFO 14273t; conditions: 3 ppm of compound (II) labeled with 14C, components A, B, 10 minutes at 30° C.
Experimental: Reaction solutions of 30 μl were prepared and maintained for 10 minutes at 30° C. The reaction solutions consisted of a 0.1M potassium phosphate buffer (pH7.0) containing 3 ppm of compound (II) labeled with ^14C, 2 mM of β-NADPH (hereinafter, referred to as “component A”) (Oriental Yeast Company), 2 mg/ml of a ferredoxin derived from spinach (hereinafter referred to as “component B”) (Sigma Company), 0.1 U/ml of ferredoxin reductase (hereinafter, referred to as “component C”) (Sigma Company) and 23 μl of the supernatant fraction recovered in Example 32(2). Similarly to Example 4(3), the reaction solutions after the maintenance were extracted with ethyl acetate and the extracted layers were TLC analyzed. […] A spot corresponding to compound (III) was detected from the reaction solution containing E. coli pKSN849AF extract. In contrast, such a spot was not detected from the reaction solution containing E. coli pKSN2 extract.
Reaction solutions of 30 μl were prepared and maintained for 10 minutes at 30° C. […] The reaction solutions after the maintenance were extracted with ethyl acetate and the extracted layers were TLC analyzed. […] A spot corresponding to compound (III) was detected from the reaction solution containing E. coli pKSN474F extract. In contrast, such a spot was not detected from the reaction solution containing E. coli pKSN2 extract.

[5] = tested on: present invention protein (A24); test: Metabolism of compounds by the present invention protein (A24), reaction solution, HPLC; type: in vitro ADME, Streptomyces rutgersensis IFO 15875T; conditions: 12.5 ppm of compound, components A, B, C, 20 μl supernatant fraction of Example 65(2), 30° C. for 10 minutes

Row | Structure (SMILES) | Herbicidal Activity Blackgrass [1] | herbicidal damage of the leaf pieces [2] | herbicidal damage of the leaf pieces [3] | spot corresponding to compound (III) labeled with 14C (TLC) [4] | concentration of the compound detected from metabolism solution (A24) compared to control solution (A24) [5]
1 | C[C@@H](Oc1cc(-n2c(=O)cc(C(F)(F)F)n(C)c2=O)c(F)cc1Cl)C(=O)O [compound (II)] | 10 | turned white and withered | grew continuously | detected | 
2 | Cn1c(C(F)(F)F)cc(=O)n(-c2cc(Oc3cccnc3OCC(=O)O)c(Cl)cc2F)c1=O [compound (XII)] |  |  |  |  | lower
